{"source": "patent US7678390B2", "about": "“Carbon monoxide as a biomarker and therapeutic agent” (priority 1999, dated 2010)", "key": {"JNK": {"system": "JNK", "experiment": "LPS-induced MAP kinase activation, Western blot (JNK)", "type": "cell-based, mouse", "conditions": "RAW 264.7 macrophages, LPS in the presence of CO", "text": "(§1) Animals. Male C57BL/6 and IL-10 (−/−) mice were purchased from Jackson Laboratory (Bar Harbor, Me.), and allowed to acclimate for one week with rodent chow and water ad libitum. The MKK (−/−) mice were generated as previously described [Lu, et al., EMBO J. 18:1845-1857 (1999)]. Wild type littermates were used as controls. All animals were housed in accordance with guidelines from the American Association for Laboratory Animal Care and Research Protocols and were approved by the Animal Care and Use Committee of Yale University School of Medicine. Reagents. All reagents were purchased from Sigma Chemical Co. (St Louis, Mo.) unless specified otherwise. Plasmid Construct. Plasmid pSFFV/HO-1 was constructed by insertion of the rat HO-1 cDNA [Shibahara, et al., Proc. Natl. Acad. Sci. USA. 82: 7865-7869 (1985)] downstream of the Friend spleen focus-forming virus 5′ long-terminal repeat in the mammalian expression vector pSFFV/neo [Fuhlbrigge, et al, Proc. Natl. Acad. Sci. USA. 85: 5649-5653 (1988)] (kindly provided by Stanley Korsmeyer). Transfection. […] Gas samples were taken by the analyzer through a port in the top of the chambers at a rate of 1 L/min and analyzed by electrochemical detection, with a sensitivity of 10-600 ppm. Concentration levels were measured hourly and there were no fluctuations in the CO concentrations once the chamber had equilibrated (approximately 5 min). […]"}, "[1]": {"system": "rat pulmonary vascular smooth muscle cells", "experiment": "cGMP radioimmunoassay in vascular smooth muscle cells", "type": "cell-based", "conditions": "2 h", "text": "as §1"}, "RAW 264.7 macrophages": {"system": "RAW 264.7 macrophages", "experiment": "cGMP radioimmunoassay in macrophages", "type": "cell-based, mouse", "conditions": "2 h", "experimental": "(§2) Nitrate/Nitrite Analysis. Both analytes were measured in the cell culture media which had been ultrafiltered to remove all proteins greater than 10,000 molecular weight. All samples were than analyzed according to the assay kit protocols. (R & D, Minneapolis, Minn.). cGMP Radioimmunoassay (RIA) in macrophages. Macrophages or vascular smooth muscle cells were exposed to CO (250 ppm) or air. 20 min before the end of the exposure 1 mM of 3-isobutyl-1-methylxanthine (IBMX) was added to the cells to prevent phosphodiesterase degradation of cGMP. After 2 h of exposure, cells were removed from the exposure chamber, rinsed with PBS and then 0.5 ml of 75% EtOH was added to the plate and cells were scraped and disrupted via sonication for 5 s. Samples were then centrifuged at 2000 g for 10 min. Supernatants were transferred to fresh tubes and evaporated to dryness. cGMP concentration in the cell extracts was determined by radioimmunoassay (NEN, Boston, Mass.) according to manufacturer's instructions. cGMP was normalized to protein concentration as determined by Bradford assay. Statistical Analysis. Data are expressed as the mean±SE. Differences in measured variables between experimental and control group were assessed using Student's t tests. Statistical calculations were performed on a Macintosh personal computer using the Statview II Statistical Package (Abacus Concepts, Berkeley, Calif.). […]"}, "MKK3(−/−) mice given LPS": {"system": "MKK3(−/−) mice given LPS", "experiment": "LPS-induced serum cytokines in MKK3(-/-) mice", "type": "in vivo, mouse", "conditions": "LPS 1 mg/kg, 250 ppm CO", "text": "as §1"}, "RAW 264.7 cells": {"system": "RAW 264.7 cells", "experiment": "Nitrate/nitrite analysis of cell culture media", "type": "cell-based, mouse", "conditions": "1 h post LPS, presence or absence of CO", "experimental": "as §2"}}, "note": "Marks after values point to notes of the source that are not given here.", "data": [{"smiles": "[C-]#[O+]", "note": "[CO, carbon monoxide]", "values": [{"measurement": "LPS-induced JNK MAP kinase activation", "setting": "JNK", "result": "not affected"}, {"measurement": "cGMP", "setting": "[1]; VSM (vascular smooth muscle cells), CO 250 ppm", "result": "8.1 ± 2^c pmol/mg protein"}, {"measurement": "increase in cGMP content", "setting": "[1]; smooth muscle cells, 250 ppm CO", "result": 16, "unit": "fold"}, {"measurement": "increase in cGMP", "setting": "RAW 264.7 macrophages; 250 ppm CO", "result": "no significant increase"}, {"measurement": "cGMP", "setting": "RAW 264.7 macrophages; CO 250 ppm", "result": "3.95 ± 0.6", "unit": "pmol/mg protein"}, {"measurement": "LPS-induced TNF-α production", "setting": "MKK3(−/−) mice given LPS", "result": "did not affect"}, {"measurement": "serum IL-10 levels after LPS", "setting": "MKK3(−/−) mice given LPS", "result": "did not exhibit augmented serum IL-10 levels"}, {"measurement": "nitrate or nitrite levels", "setting": "RAW 264.7 cells", "result": "no increases"}]}]}
